SMILES strings stand for the structures.

The nature of the series: density at 20° C. The series is classed as physicochemical. Conditions: temperature of 20° C. As for the experimental part: whilst the dye is defined by the formula (V) and is present in a weight ratio of 0.008% to the solvent. In particular, with the solvent consisting of perfluorooctane (VI), the solution has an absorbance equal to 1,403 at a wavelength of 580 nm. Said solution also has a density of 1,756 kg/l at a temperature of 20° C. (substantially equal to that of perfluorooctane alone which, at 20° C., is equal to 1,755).

On to `FC(F)(F)C(F)(F)C(F)(F)C(F)(F)C(F)(F)C(F)(F)C(F)(F)C(F)(F)F` [perfluorooctane], for which the density is recorded as 1,755 kg/l.

(Values after US20150050219A1, “COLOURED SOLUTION IN PARTICULAR FOR USE IN SURGICAL METHODS FOR THE TREATMENT OF THE BODIES OF HUMANS OR ANIMALS” (BBS S.r.l., priority 2012, published 2015).)
